Structures can show the parent of a compound that is named as a salt.

One test relates to TNF-α. Description: LPS-induced TNF-α production in human normal PBMCs (ELISA). It is filed as cell-based. As for the experimental part: (§1) PBMCs were isolated from fresh blood using a Ficoll-Paque Plus reagent (Amersham Bioscience) according to the protocol recommended by the manufacturer. The cells were suspended in a RPMI 1640 medium containing 10% FBS at a concentration of 1×10^5 cells/ml and seeded in a 96-well plate (1×10^4 cells total in each well). Each reaction was carried out in three wells.
(§2) 10 μl of pseudolycorine hydrochloride in DMSO was added to wells to obtain the final concentrations at 0.1, 0.3, 1, 3, 10, 30, and 100 μg/ml. In a positive control, dexamethason (DEX), an anti-inflammatory agent, instead of pseudolycorine hydrochloride, was added (final concentration 10 μM). In a negative control, 10 μl of the medium, instead of pseudolycorine hydrochloride, was added. The plate was placed in a 5% CO2 incubator at 37° C. for 15 minutes. After 10 μl aliquots of 100 μg/ml of LPS were added to all wells except for the negative control, the plate was placed in a 5% CO2 incubator at 37° C. overnight.
(§3) The plate was spun at 1000 rpm for 15 minutes and the supernatants were collected. The concentrations of TNF-α and IL-1β were measured by the TNF-α ELISA (Enzyme Linked Immunosorbent Assay) Kit and IL-1β ELISA Kit (Jingmei Bioengineer Technology). The inhibition ratios of TNF-α and IL-1β were calculated as follows: TNF-α Inhibition Ratio (%)=[TNF-α]control−[TNF-α]PHCl/[TNF-α]control×100% IL-1β Inhibition Ratio (%)=[IL-1β]control−[IL-1β]PHCl/[IL-1β]control×100% where [TNF-α]PHCl is the concentration of TNF-α in PBMCs treated with pseudolycorine hydrochloride and LPS, [TNF-α]control is the concentration of TNF-α in PBMCs treated with LPS and the medium, [IL-1β]PHCl is the concentration of IL-1β in PBMCs treated with pseudolycorine hydrochloride and LPS, and [IL-1β]control is the concentration of IL-1β in PBMCs treated with LPS and the medium.
On the technique in general: An ELISA detects its analyte on a solid surface through an enzyme-linked reagent.

The test system of a further test is IL-1β. Description: LPS-induced IL-1β production in human normal PBMCs (ELISA). It counts as cell-based. As for the experimental part:
as §1, §2, §3

Setting [1] is: compared with dexamethason (DEX) at 10 μM, LPS-stimulated human PBMCs.

As for `COc1cc2c(cc1O)[C@@H]1[C@H](O)[C@@H](O)C=C3CCN(C2)[C@H]31` [pseudolycorine hydrochloride], in the test on TNF-α (0.1-100 μg/ml, FIG. 3), the “inhibition of expression of TNF-α, concentration dependence” value is given as “concentration-dependent manner”. Moreover, the “concentration at which expression of TNF-α was inhibited” value in the test with TNF-α (LPS-stimulated human PBMCs, overnight, ELISA of supernatant, FIG. 1) is no less than 0.3 µg/mL. The “concentration at which expression of TNF-α was inhibited more effectively than DEX” value in the test with TNF-α (setting [1]) is no less than 3 µg/mL. In addition, in the test on IL-1β (0.1-100 μg/ml, FIG. 4), the “inhibition of expression of IL-1β, concentration dependence” value is recorded as “concentration-dependent manner”. Besides, the “concentration at which expression of IL-1β was inhibited” value in the test with IL-1β (LPS-stimulated human PBMCs, overnight, ELISA of supernatant, FIG. 2) was no less than 1 µg/mL. Further, the “concentration at which expression of IL-1β was inhibited more effectively than DEX” value in the test with IL-1β (setting [1]) is no less than 10 µg/mL.
